Measurements from paper PMC5387044, “Analogs of the Frog-skin Antimicrobial Peptide Temporin 1Tb Exhibit a Wider Spectrum of Activity and a Stronger Antibiofilm Potential as Compared to the Parental Peptide” (Frontiers in Chemistry, 2017).
Marks after values point to notes of the source that are not given here. No end group written: not given here.

Columns and labels:
[1] = tested on: human red blood cells (RBCs); conditions: concentrations up to 96 μM, 1 h, 37°C
Procedure: Hemolytic activity of TB and its analogs was tested against human red blood cells (RBCs) as previously described (Tavanti et al., [2011]). Briefly, peripheral blood obtained from healthy donors was centrifuged (1,000 × g for 10 min, 4°C) and washed three times with PBS (Euroclone, Milan, Italy). A suspension of RBCs (4%, v/v) was mixed with various concentrations of the peptides (from 12 to 96 μM) into a round-bottom polystyrene 96-well microplate (Corning Costar). RBCs suspended in PBS alone were used as negative control (0% hemolysis), while cells lysed with 0.1% Triton X-100 were taken as positive control (100% hemolysis). The microplate was incubated for 1 h at 37°C and then centrifuged at 1,000 × g for 20 min, 4°C. Supernatants were transferred to a new plate and the optical density at 450 nm (OD450) was measured by means of a microplate reader. The hemolytic activity was quantified according to the following formula: hemolysis (%) = [(OD peptide – OD negative control)/(OD positive control – OD negative control)] × 100.
The hemolytic activity was evaluated by the spectrophotometric determination of hemoglobin released from erythrocytes. PBS (0% hemolysis) and Triton X-100 (100% hemolysis) were used as controls. Hemolysis values ≤ 10% (dashed line) are considered to be non-hemolytic (Amin and Dannenfelser, [2006]). […]

P. aeruginosa ATCC 27853 [2] = conditions: ATCC 27853, 24 h, pH 7.4
S. aureus ATCC 33591 [3] = assay type: cell-based, Staphylococcus aureus; conditions: pH 7.4
P. aeruginosa ATCC 27853 [4] = assay type: cell-based, Pseudomonas aeruginosa; conditions: pH 7.4
in vitro [5] = conditions: human
[6] = tested on: preformed biofilms of S. aureus ATCC 33591; assay: Biofilm treatment assay on preformed (24-h old) biofilms, CFU counting, alone and with EDTA; assay type: cell-based, Staphylococcus aureus; conditions: concentrations up to 120 μM, CFU counting
Procedure: The activity of TB, TB_L1FK, and TB_KKG6A against preformed (24-h old) biofilms of S. aureus and P. aeruginosa was also investigated. Briefly, biofilms were allowed to form for 24 h in flat-bottom 96-well microplates in the absence of antimicrobial compounds. Established biofilms were then washed three times with PBS in order to remove non-adherent cells and incubated in fresh BPM with different concentrations of the three peptides (from 15 to 120 μM). After 24 h of incubation, the viability of biofilm-associated cells was evaluated by CFU counting. For this purpose, biofilms were washed three times with PBS and bacterial cells were detached from the surface of the wells with a pipette tip, vigorously vortexed and plated in serial dilutions on TSA.
TB_L1FK and TB_KKG6A were combined with EDTA in order to enhance their activity against preformed biofilms of S. aureus and P. aeruginosa. […] Following incubation, the antibiofilm effect was evaluated in terms of number of biofilm-associated viable cells as previously described.
Figure 4 Activity of TB_L1FK and TB_KKG6A, used alone and in combination with EDTA, against preformed (24-h old) biofilms of S. aureus ATCC 33591 (A,B) and P. aeruginosa ATCC 27853 (C,D). The antibiofilm activity of the peptides, EDTA and the peptide-EDTA combinations was evaluated by CFU counting after 24 h of incubation. […]

[7] = tested on: P. aeruginosa ATCC 27853 biofilm formation
S. aureus ATCC 33591 [8] = conditions: ATCC 33591, 24 h, pH 7.4
[9] = tested on: S. epidermidis ATCC 35984; conditions: ATCC 35984, 24 h, pH 7.4
[10] = tested on: K. pneumoniae ATCC BAA-1706; conditions: ATCC BAA-1706, 24 h, pH 7.4
in vitro [11] = conditions: human; remark: listed apart in the source

In the case of LLPIVGNLLKSLL-NH2 [TB, Temporin 1Tb], the Hemolytic effect [1] is reported as “no hemolytic effect”, the MBC (P. aeruginosa ATCC 27853 [2]) is reported as 48 µM and the “Time to bactericidal effect (reduction of at least 3 Log10 in viable bacteria)” value (S. aureus ATCC 33591 [3]) is reported as “approximately 90 min”. The “Time to bactericidal effect” value (P. aeruginosa ATCC 27853 [4]) was 15 min, the viability (in vitro [5]) was ~90% and the “Antibiofilm activity on preformed biofilms” value [6] was “did not exert a considerable antibiofilm activity”. The “Inhibitory activity on forming biofilms” value [7] was “no inhibitory activity”, the MBC (S. aureus ATCC 33591 [8]) was 12^a μM and the MBC [9] was 6 µM. It also gave an MBC [10] of 48 µM and a viability (in vitro [11]) of ~90%.
